# Results published in article PMC9203742 (Nature Communications, 2022).
# “And” between values parts separate entries of the source, which are not always exact repeats. Equal entries are not always repeated.
# Tests used:
# Format in all cases: cell-based, mouse
# [1] = test system: MLIs surrounded by mGlu1(N264H)-expressing Purkinje cells (AAV-L7-mGlu1^CBC); assay: sAP-mediated currents (firing rate) of MLIs in slices infected with AAV-L7-mGlu1^CBC; details: 10 μM Pd(sulfo-bpy); P = 0.293
# Description: (§1) To monitor the excitability of MLIs, sAP-mediated current responses were extracellulary recorded by a loose cell-attached voltage-clamp at a holding potential of 0 mV. Glass electrodes used for cell-attached recordings had resistances of 3–5 MΩ when filled with ACSF. The current recordings from AAV-infected cells were performed 1−2 weeks after infection. The EPSCs and sAP-mediated currents were recorded using an Axopatch 200B amplifier (Molecular Devices), and the pClamp system (version 9.2; Molecular Devices) was used for data acquisition and analysis. The signals were filtered at 1 kHz and digitized at 4 kHz for the evoked EPSCs and 10 kHz for the sAP-mediated currents.
# (§2) Injection of viral solutions was performed as described previously with slight modifications. Briefly, under deep anesthesia, with an intraperitoneal injection of medetomidine (0.3 mg/kg), midazolam (4.0 mg/kg), and butorphanol (5.0 mg/kg), 4 µL of the solutions containing AAV mixture were directly injected into the vermis of cerebellar lobules V-VIII (200-300 µm in depth, 12 µL/h in rate) of WT mice (C57BL/6J, P20-P30) using glass pipette (30–40 µm in diameter) and microinjector (Nanoliter; World Precision Instruments). In all, 1−2 week after injection, the mice were used for each experiment.
# [2] = test system: Purkinje cells in cerebellar slices from mGlu1^CBC/+ mice; assay: chemLTD recording (PF-EPSC) in Purkinje cells of acute cerebellar slices, mGlu1^CBC/+ mice; details: for PF-EPSC amplitude relative to time 0: mGlu1CBC/+, individual cells
# Description: Sagittal cerebellar slices were cut with a microslicer (Linear slicer Pro7; DOSAKA EM) in cutting solution buffer and then incubated in ACSF gassed with 5% CO2 and 95% O2 at room temperature.
# Whole-cell patch-clamp recordings were made from visually identified Purkinje cells using a 60× water-immersion objective attached to an upright microscope (BX51WI, Olympus) at room temperature, as described previously. […] Picrotoxin (100 µM; Sigma) was always added to the saline to block inhibitory synaptic transmission.
# To evoke EPSCs derived from CF (CF-EPSCs) and PF (PF-EPSCs) inputs onto Purkinje cells, square pulses were applied through a stimulating electrode placed on the granular layer and the molecular layer (50 µm away from the pial surface), respectively. The selective stimulation of CFs and PFs was confirmed by the paired-pulse depression (PPD) and paired-pulse facilitation (PPF) of EPSC amplitudes at a 50-ms interstimulus interval (ISI), respectively.
# For the LTD sessions, PF-EPSCs were recorded successively at a frequency of 0.1 Hz from Purkinje cells clamped at –80 mV. After a stable PF-EPSC amplitude had been observed for at least 5 min, a conjunctive stimulation that consisted of 30 single PF stimuli together with a 200 ms depolarizing pulse from a holding potential of –60 to +20 mV was applied for LTD induction.
# To chemically induce LTD (chemLTD), 50 µM (S)-3,5-dihydroxyphenylglycine (DHPG) or 1 µM Pd(sulfo-bpy) was applied for 10 min in a current-clamp mode. We often observed a transient decrease in PF-EPSC amplitude after the application of each drug probably because Purkinje cells under current-clamp conditions excite spontaneously to suppress presynaptic function through the retrograde signaling. Access resistances were monitored every 10 s by measuring the peak currents in response to 2 mV, 50-ms hyperpolarizing steps throughout the experiments; the measurements were discarded if the resistance changed by >20% of its original value. The normalized EPSC amplitude on the ordinate represents the EPSC amplitude for the average of six traces for 1 min divided by that of the average of six traces for 1 min immediately before the conjunctive stimulation or the drug application.
# [3] = test system: MLIs infected with AAV-hSyn-mGlu1^CBC; assay: sAP-mediated currents (firing rate) of MLIs infected with AAV-hSyn-mGlu1^CBC; details: 10 μM Pd(sulfo-bpy); P = 4.613 × 10^–5
# Description: as §1, §2
# [4] = test system: GFP-positive Purkinje cells infected with AAV-L7-mGlu1^WT; assay: chemLTD recording in GFP-positive Purkinje cells, slices infected with AAV-L7-mGlu1^WT; details: for PF-EPSC amplitude normalized to time 0, individual Purkinje cells / PF-EPSC amplitude normalized to time 0, mean of cells: AAV-L7-mGlu1WT
compound,measurement,setting,value
Cc1ccnc(-c2cc(COCCCS(=O)(=O)[O-])ccn2)c1.[Cl][Pd][Cl].[Na+] [Pd(sulfo-bpy)],Firing rate of MLIs,[1],failed to increase
same,chemLTD: normalized PF-EPSC amplitude,"[2]; 1 μM Pd(sulfo-bpy) for 10 min, t = 31−35 min",68 ± 5%
same,PF-EPSC amplitude relative to time 0,[2]; time 11 min,0.4686 and 0.63 and 0.9877 and 0.796 and 0.8663 and 0.8992 and 0.747 and 0.5935
same,PF-EPSC amplitude relative to time 0,[2]; time 12 min,0.5628 and 0.6446 and 0.9391 and 0.713 and 0.7198 and 0.9003 and 0.6921 and 0.7152
same,PF-EPSC amplitude relative to time 0,[2]; time 13 min,0.621 and 0.6377 and 0.8863 and 0.7092 and 0.7439 and 0.8712 and 0.699 and 0.7447
same,PF-EPSC amplitude relative to time 0,[2]; time 14 min,0.6095 and 0.6409 and 0.8383 and 0.7009 and 0.7151 and 0.836 and 0.6833 and 0.8191
same,PF-EPSC amplitude relative to time 0,[2]; time 15 min,0.6012 and 0.6741 and 0.9189 and 0.6721 and 0.6888 and 0.8836 and 0.7293 and 0.8645
same,PF-EPSC amplitude relative to time 0,[2]; time 16 min,0.5331 and 0.6806 and 0.916 and 0.7015 and 0.697 and 0.7978 and 0.7054 and 0.8737
same,PF-EPSC amplitude relative to time 0,[2]; time 17 min,0.5491 and 0.6542 and 0.8424 and 0.6962 and 0.6712 and 0.7371 and 0.6859 and 0.9232
same,PF-EPSC amplitude relative to time 0,[2]; time 18 min,0.5728 and 0.6898 and 0.851 and 0.7066 and 0.6167 and 0.9345 and 0.6617 and 0.9653
same,PF-EPSC amplitude relative to time 0,[2]; time 19 min,0.6147 and 0.6344 and 0.8403 and 0.7161 and 0.6281 and 0.877 and 0.663 and 0.9646
same,PF-EPSC amplitude relative to time 0,[2]; time 20 min,0.6536 and 0.6214 and 0.844 and 0.7068 and 0.6666 and 0.8676 and 0.6507 and 0.862
same,PF-EPSC amplitude relative to time 0,[2]; time 21 min,0.6234 and 0.6163 and 0.8161 and 0.7457 and 0.6988 and 0.7776 and 0.5996 and 0.8293
same,PF-EPSC amplitude relative to time 0,[2]; time 22 min,0.6625 and 0.6523 and 0.8492 and 0.7192 and 0.6537 and 0.814 and 0.6019 and 0.7969
same,PF-EPSC amplitude relative to time 0,[2]; time 23 min,0.703 and 0.6662 and 0.865 and 0.711
same,Firing rate of MLIs,[3],increased the firing rate
same,chemLTD: normalized PF-EPSC amplitude,"[4]; 1 μM Pd(sulfo-bpy), t = 31−35 min",88 ± 7%
same,"PF-EPSC amplitude normalized to time 0, individual Purkinje cells",[4]; Time 11 min,0.5479 and 0.8947 and 0.9287 and 0.866 and 0.7568 and 0.3484 and 0.5317
same,"PF-EPSC amplitude normalized to time 0, mean of cells",[4]; Time 11 min,0.6963
same,"PF-EPSC amplitude normalized to time 0, individual Purkinje cells",[4]; Time 12 min,0.6486 and 0.7811 and 0.7919 and 0.9348 and 0.7682 and 0.482 and 0.6188
same,"PF-EPSC amplitude normalized to time 0, mean of cells",[4]; Time 12 min,0.7179
same,"PF-EPSC amplitude normalized to time 0, individual Purkinje cells",[4]; Time 13 min,0.8009 and 0.7991 and 0.7966 and 0.9028 and 0.809 and 0.4767 and 0.682
same,"PF-EPSC amplitude normalized to time 0, mean of cells",[4]; Time 13 min,0.7525
same,"PF-EPSC amplitude normalized to time 0, individual Purkinje cells",[4]; Time 14 min,0.8571 and 0.8119 and 0.8301 and 0.9359 and 0.8385 and 0.4849 and 0.6984
same,"PF-EPSC amplitude normalized to time 0, mean of cells",[4]; Time 14 min,0.7795
same,"PF-EPSC amplitude normalized to time 0, individual Purkinje cells",[4]; Time 15 min,0.8756 and 0.8988 and 0.8051 and 0.8932 and 0.8452 and 0.5102 and 0.7309
same,"PF-EPSC amplitude normalized to time 0, mean of cells",[4]; Time 15 min,0.7942
same,"PF-EPSC amplitude normalized to time 0, individual Purkinje cells",[4]; Time 16 min,0.9159 and 0.9928 and 0.8396 and 0.8655 and 0.841 and 0.5112 and 0.7755
same,"PF-EPSC amplitude normalized to time 0, mean of cells",[4]; Time 16 min,0.8202
same,"PF-EPSC amplitude normalized to time 0, individual Purkinje cells",[4]; Time 17 min,0.9971 and 1.069 and 0.8238 and 0.8887 and 0.8439 and 0.5087 and 0.7457
same,"PF-EPSC amplitude normalized to time 0, mean of cells",[4]; Time 17 min,0.8396
same,"PF-EPSC amplitude normalized to time 0, individual Purkinje cells",[4]; Time 18 min,1.0288 and 1.119 and 0.837 and 0.8899 and 0.9043 and 0.5561 and 0.7949
same,"PF-EPSC amplitude normalized to time 0, mean of cells",[4]; Time 18 min,0.8757
same,"PF-EPSC amplitude normalized to time 0, individual Purkinje cells",[4]; Time 19 min,0.8877 and 1.0703 and 0.9503 and 0.893 and 0.9667 and 0.5652 and 0.7658
same,"PF-EPSC amplitude normalized to time 0, mean of cells",[4]; Time 19 min,0.8713
